Laboratory results from PMC4237514, “Novel amino-β-lactam derivatives as potent cholesterol absorption inhibitors” (European Journal of Medicinal Chemistry, 2014).

Target: T1, human NPC1L1 (Homo sapiens, UniProt Q9UHC9)
T1 construct: expressed in transfected cells
T1 sequence (Q9UHC9 22-1359): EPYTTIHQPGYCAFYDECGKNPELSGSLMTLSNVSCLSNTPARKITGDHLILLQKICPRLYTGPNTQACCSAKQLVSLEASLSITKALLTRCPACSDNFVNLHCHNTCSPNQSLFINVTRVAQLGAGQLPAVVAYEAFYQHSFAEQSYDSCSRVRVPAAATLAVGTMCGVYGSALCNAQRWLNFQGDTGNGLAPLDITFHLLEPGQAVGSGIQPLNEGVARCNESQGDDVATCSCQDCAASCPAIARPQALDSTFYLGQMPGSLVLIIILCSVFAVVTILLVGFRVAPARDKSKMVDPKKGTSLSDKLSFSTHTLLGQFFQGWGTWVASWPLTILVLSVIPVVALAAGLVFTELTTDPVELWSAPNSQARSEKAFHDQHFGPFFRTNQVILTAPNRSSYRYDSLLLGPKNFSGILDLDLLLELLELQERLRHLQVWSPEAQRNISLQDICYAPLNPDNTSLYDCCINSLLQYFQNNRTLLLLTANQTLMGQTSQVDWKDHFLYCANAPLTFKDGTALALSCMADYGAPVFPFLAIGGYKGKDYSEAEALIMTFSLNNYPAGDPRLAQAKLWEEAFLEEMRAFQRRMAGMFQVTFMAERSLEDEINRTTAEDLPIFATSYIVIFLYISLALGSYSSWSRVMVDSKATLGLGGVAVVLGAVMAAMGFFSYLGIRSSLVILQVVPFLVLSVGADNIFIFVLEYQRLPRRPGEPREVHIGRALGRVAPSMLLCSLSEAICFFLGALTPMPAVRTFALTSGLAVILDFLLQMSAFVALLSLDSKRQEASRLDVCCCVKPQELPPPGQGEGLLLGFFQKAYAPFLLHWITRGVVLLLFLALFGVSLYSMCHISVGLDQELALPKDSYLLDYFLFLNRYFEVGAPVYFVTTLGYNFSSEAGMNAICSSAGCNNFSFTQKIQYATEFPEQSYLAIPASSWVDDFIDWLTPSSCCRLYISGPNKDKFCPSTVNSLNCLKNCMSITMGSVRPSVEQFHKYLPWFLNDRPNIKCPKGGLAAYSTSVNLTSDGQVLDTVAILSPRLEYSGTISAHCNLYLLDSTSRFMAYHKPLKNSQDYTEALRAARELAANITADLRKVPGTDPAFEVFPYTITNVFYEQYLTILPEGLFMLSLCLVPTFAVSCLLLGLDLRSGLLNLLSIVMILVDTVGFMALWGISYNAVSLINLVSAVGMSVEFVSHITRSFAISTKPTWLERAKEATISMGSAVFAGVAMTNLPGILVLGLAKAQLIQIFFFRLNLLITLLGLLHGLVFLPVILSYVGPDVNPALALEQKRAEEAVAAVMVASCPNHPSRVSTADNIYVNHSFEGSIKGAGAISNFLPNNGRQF
Test: In vitro [3H]cholesterol uptake assay in hNPC1L1/MDCKII cells
Assay type: cell-based
Conditions: 1 h, read-out: IC50, cholesterol uptake inhibition
Protocol: Medium A contained DMEM plus 100 units/mL penicillin and 100 μg/mL streptomycin supplemented with 5% lipoprotein-deficient serum (density > 1.21 g/mL, prepared from FCS by ultracentrifugation). Cholesterol Replenishing Medium (Medium B) was prepared according to the modified method reported by Field et al.. In brief, 0.25 mM oleic acid, 50 μM free cholesterol, 10 μM compactin, 50 μM mevalonate, 5 mM Na-taurocholate (Sigma–Aldrich, Germany), and [^3H]cholesterol (0.18 μCi/mL medium, [1,2–3H(N)] cholesterol, 1 mCi/mL (ARC Inc., USA)) in Medium A were mixed and sonicated. Following the micellar formation, compounds 1, 5, 6, 5/6 (70:30), and 6/5 (85:15) (73 mM stock solution in DMSO) were added to Medium B and vortexed to obtain the final concentrations (10, 30, 60, 90, 120, 150, 200 μM).
MDCKII wildtype and hNPC1L1/MDCKII cells were seeded in 24-well plates at a density of 5 × 10^5 cells/mL medium (500 μL medium/well) in Medium A 24 h before the treatment. Cells were washed once with PBS and incubated in Medium B (500 μL medium/well) containing micelles and tested compounds in indicated concentrations for 1 h. Following the incubation, the medium was removed and cells were washed three times with ice-cold 0.2% free fatty acid-free BSA. Cells were lysed and radioactivity in the lysate (100 μL) was determined by liquid scintillation counting. Protein concentrations of the lysates were determined with the DC Protein Assay (Bio-Rad, USA). The results were calculated as cpm/mg protein and expressed as percentage of inhibition compared to untreated cells. Each concentration was tested in duplicate in three independent experiments.

SMILES: O=C1[C@H](NCC(O)c2ccc(F)cc2)[C@@H](c2ccc(O)cc2)N1c1ccc(F)cc1 (stereo partly drawn) [6/5 (85:15), (3R,4R)-3-[(2S/R)-2-(4-fluorophenyl)-2-hydroxyethylamino]-1-(4-fluorophenyl)-4-(4-hydroxyphenyl)azetidin-2-one]
- IC50: 71 µM
